BindingDB's records for doi:10.7270/Q2M0441T (Dalhousie University, 1989)

molecular target: T1, Phosphatidylcholine-sterol acyltransferase (Homo sapiens, UniProt P04180); assay: Enzyme Assay; details: pH 7.5; 4 °C
T1 sequence (P04180 whole entry): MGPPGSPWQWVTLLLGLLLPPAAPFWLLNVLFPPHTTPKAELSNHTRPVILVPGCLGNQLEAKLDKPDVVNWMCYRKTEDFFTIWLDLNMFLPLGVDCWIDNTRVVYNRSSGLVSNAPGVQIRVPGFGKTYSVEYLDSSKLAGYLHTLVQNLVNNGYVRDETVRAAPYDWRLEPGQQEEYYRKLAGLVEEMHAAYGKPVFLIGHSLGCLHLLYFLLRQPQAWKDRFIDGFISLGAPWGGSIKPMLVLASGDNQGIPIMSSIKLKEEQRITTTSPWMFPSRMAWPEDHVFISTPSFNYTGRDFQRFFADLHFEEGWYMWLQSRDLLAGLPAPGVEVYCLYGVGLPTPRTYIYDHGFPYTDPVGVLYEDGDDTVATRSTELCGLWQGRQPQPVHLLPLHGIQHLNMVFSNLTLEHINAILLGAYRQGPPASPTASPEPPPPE
Procedure: The phospholipase A2 activity of LCAT was assayed using lecithin and apoA-I containing [9,10-3H] dipalmitoylphosphatidylcholine (DPPC) and measurement of the radioactive fatty acid released from the sn-2-position.

Which IC50 does the source give for CCCCCCCC(=O)C(F)(F)CCOP(=O)([O-])OCC[N+](C)(C)C [Difluoroketone phospholipid analogue, 1] here?
The IC50 was greater than 500 nM.

How did the IC50 turn out when CCCCCCCCOCC(COP(=O)([O-])OCC[N+](C)(C)C)C(F)(F)C(=O)CCCCCCC (centres undefined) [Difluoroketone phospholipid analogue, 2] was run?
Its IC50 is 60 nM.

With CCCCCCCCCCCCCCCCC(=O)C(F)(F)C(COCCCCCCCC)COP(=O)([O-])OCC[N+](C)(C)C (centres undefined) [Difluoroketone phospholipid analogue, 3] as the compound, how does the IC50 read?
The IC50 was 28 nM.

Which IC50 does the source give for CCCCCCCC(=O)OCC(COP(=O)([O-])OCC[N+](C)(C)C)CC(=O)C(F)(F)CCCCCC (centres undefined) [Difluoroketone phospholipid analogue, 4] here?
The IC50 was 60 nM.
